Assay results as given in ChEMBL document CHEMBL3507680, “University of Dundee, Gates Library screen for HepG2 cell viability”.

Experiment: Human HepG2 cell viability assay in 384 well format
Assay type: toxicity, cell-based
Set-up: dose 125 nL, time 70.5 hour; cytotoxicity at 70.5 h: concentration not given beside the values
Conditions: HepG2 cells, read-out: Inhibition

| SMILES | cytotoxicity at 70.5 h |
| --- | --- |
| CNC(=O)c1cccc(CN2CCC(N(C)Cc3nnc(C)o3)C2)c1 (stereo unspecified) | -6.28% |
| CN(CC(N)=O)Cc1c(Cl)ccc2cccnc12 | -2.22% |
| O=C1CCCN1CCCN1CCCC(Cn2cncn2)C1 (stereo unspecified) | 3.37% |
| O=C1OCCC1N1CCN(c2ccccn2)CC1 (stereo unspecified) | -15.5% |
| CN(Cc1ccc(F)c2cccnc12)C1CCS(=O)(=O)C1 (stereo unspecified) | -9.82% |
| Cc1nnc2ccc(N3CCN(Cc4nccn4C)CC3)nn12 | 5.33% |
| Cc1cc(S(C)(=O)=O)c(C)c(S(=O)(=O)NCC2CCCO2)c1 (stereo unspecified) | -16.8% |
| O=C1CCCN1CCN1CCCCC1Cn1cccn1 (stereo unspecified) | -10.6% |
| CN(CCC#N)C(=O)CN1CCCN(Cc2noc(C3CC3)n2)CC1 | -0.995% |
| NC(=O)c1cncc(N2CCN(Cc3ccc(F)cc3Cl)CC2)n1 | -3.73% |
| COC(=O)c1cccc(CNC(=O)NCCC(F)(F)F)c1 | 1.57% |
| Cc1ncc(CNC(=O)N(C)Cc2ccc([S+](C)[O-])cc2)s1 (stereo unspecified) | -4.15% |
| Cc1n[nH]cc1CNC(=O)Nc1cccc(OCC(F)(F)F)c1 | -6.62% |
| CCOc1ccc(Cl)c(C(=O)NC(C)C(N)=O)n1 (stereo unspecified) | -5.7% |
| O=C(c1ccccc1)N1CCN(C2CCc3ccc(F)cc32)CC1 (stereo unspecified) | -9.61% |
| Cc1nn(C)c(N2CCOCC2)c1CNCC1CCCN1C (stereo unspecified) | -5.73% |
| Cc1nn(C)c(N2CCOCC2)c1CNC1CCS(=O)(=O)C1 (stereo unspecified) | -6.08% |
| CS(=O)(=O)NCCC(=O)NC1(c2ccc(F)cc2)CCCC1 | -6.92% |
| CC(C)c1cc(C(=O)NCc2nc(-c3ccc(F)cc3)n[nH]2)n[nH]1 | 12.6% |
| Cc1nn(C)c(NC(=O)C2SCCc3ccccc32)c1C (stereo unspecified) | 0.91% |
| CCc1ccc(C2COCCN2C(=O)NCc2cccc(C#N)c2)o1 (stereo unspecified) | -9.17% |
| Cc1nc(C)c(C)c(N2CCC3(CCOC3)C2)n1 (stereo unspecified) | 17% |
| c1cc(-c2noc(-c3cc(C4CC4)[nH]n3)n2)cc(N2CCCCC2)n1 | -0.746% |
| CCN(CC(F)(F)F)C(=O)C1CCCN(Cc2ccno2)C1 (stereo unspecified) | -7.36% |
| CCc1cnc(CN(C)C(=O)NC2CCN(C)C2=O)s1 (stereo unspecified) | -7.59% |

| SMILES | cytotoxicity at 70.5 h |
| --- | --- |
| COC(=O)N1CCN(Cc2ccccc2C(C)(C)C#N)CC1 | -5.92% |
| CCc1ccc(C2COCCN2C(=O)Nc2ccc(C#N)cc2)o1 (stereo unspecified) | 47.1% |
| CCN(CC)Cc1ccc(CNC(=O)C(C)(C)n2cc(Br)cn2)cc1 | 15.4% |
| O=C(CS(=O)(=O)Cc1nnnn1C1CC1)NCCc1ccccc1 | -3.81% |
| O=C(CS(=O)(=O)Cc1nnnn1C1CC1)NCC1CC1 | -4.04% |
| O=C(NCc1ccccc1CN1CCOCC1)Nc1nncs1 | 11% |
| O=C(NCCn1ccnc1)C1(c2ccc3c(c2)OCCO3)CCCC1 | -12% |
| O=C(NCc1ccccc1CN1CCCCC1)Nc1nncs1 | -10.2% |
| CC(Cn1ccnc1)NS(=O)(=O)c1ccc(F)c(Cl)c1 (stereo unspecified) | -1.84% |
| CN(C1CCN(c2ccccn2)CC1)S(=O)(=O)c1ccccc1F | -3.26% |
| CN(C1CCN(c2ccccn2)CC1)S(=O)(=O)c1cccc(F)c1 | 2.86% |
| O=c1[nH]c(CCN2CCN(CC(F)(F)F)CC2)nc2ccccc12 | -4.17% |
| CCOCCN1CCN(CCc2nc3ccccc3c(=O)[nH]2)CC1 | 1.75% |
| COCc1ccccc1C(=O)N1CCN(C2=NCC(C)(C)S2)CC1 | -5.17% |
| CC(C)CNC(=O)CC1OCCc2ccsc21 (stereo unspecified) | -7.58% |
| CCCNC(=O)CC1OCCc2ccsc21 (stereo unspecified) | -6.25% |
| COCCn1ccc(NCc2sccc2C)n1 | -3.13% |
| CNC(=O)CN1CCOC(c2ccccc2C(F)(F)F)C1 (stereo unspecified) | 7.85% |
| COCc1nccc(C2CCCN(Cc3ccc(C#N)cc3)C2)n1 (stereo unspecified) | -5.34% |
| COCc1nccc(C2CCCN(Cc3ccc(SC)cc3)C2)n1 (stereo unspecified) | -3.62% |
| O=C(c1ccc2c(c1)OCCCO2)N1CCCCC1C1OCCO1 (stereo unspecified) | -3.71% |
| COCc1nccc(C2CCCN(Cc3ccc(C#N)cc3F)C2)n1 (stereo unspecified) | -1.86% |
| COCCNC(=O)C1(c2ccc(C)c(OC)c2)CCCC1 | -10.9% |
| O=C(CN1CCOC(c2ccccc2C(F)(F)F)C1)NC1CC1 (stereo unspecified) | -7.54% |
| CCN(CCC(=O)NC1CC1)Cc1ccc(Cl)s1 | -11.3% |

| SMILES | cytotoxicity at 70.5 h |
| --- | --- |
| COCCNS(=O)(=O)c1ccc(Cl)c(C(=O)N(C)Cc2sccc2C)c1 | -12.1% |
| COc1ccc(NC(=O)N(C)Cc2ccco2)cn1 | -6.69% |
| Cc1cccc(CNc2cncc(-n3cccn3)n2)c1 | -5.29% |
| O=C(CCSc1ccccc1)NCCn1nc2ccccn2c1=O | -8.89% |
| CC1CCN(CC2CCCN(C(=O)Nc3ccccn3)C2)CC1 (stereo unspecified) | -7.54% |
| Cn1c(NC(=O)CNC(=O)C2CCCC2)nc2cc(Cl)ccc21 | -9.81% |
| O=C(NCCN1CCOCC1)c1ccc(-c2ccccc2)[nH]c1=O | -2.93% |
| Cc1ccc(C(=O)NCCN2CCOCC2)c(=O)[nH]1 | -11.5% |
| COc1ccc(CC(=O)NCCn2nc3ccccn3c2=O)cc1 | 12.9% |
| COc1c(CNCc2ccc(N3CCOCC3)cc2)c(C)nn1C | -9.85% |
| O=C(NC1CCCCC1)C1CCCN(C(=O)Nc2ccccn2)C1 (stereo unspecified) | -15.3% |
| CN1CCN(C(=O)NCCNc2ncccn2)Cc2ccccc21 | -14% |
| Cc1cc(NCCn2cccn2)n2ncnc2n1 | 0.75% |
| COCCC(C)NC(=O)Nc1ccc(N2CCOC2=O)c(OC)c1 (stereo unspecified) | -11% |
| Cc1ccc(NCCNC(=O)C2Cc3cc(C)c(C)cc3O2)nn1 (stereo unspecified) | -2.18% |
| COc1cc(NC(=O)N(C)Cc2ccc(Br)o2)ncn1 | -8.49% |
| CCC(CNC(=O)c1c(C)nn(C)c1OC)Oc1ccccc1 (stereo unspecified) | -7.65% |
| O=C(NCc1cccnc1)NCC(O)c1cccc(C(F)(F)F)c1 (stereo unspecified) | -9.97% |
| COC(=O)NCCCC(=O)NCC1(c2cccc(Cl)c2)CC1 | 20.6% |
| CNS(=O)(=O)CC1CCCN1C(=O)c1cccc(Cl)c1 (stereo unspecified) | -7.35% |
| Cc1c(C(=O)N2CCSCC2)sc2nc(C(F)(F)F)ccc12 | -9.06% |
| Cc1c(C(N)=O)sc2nc(C(F)(F)F)ccc12 | 19.9% |
| CN(Cc1nc(-c2cccnc2)no1)C(=O)c1cnc2n1CCCC2 | -6.12% |
| CCC(=O)N1CCC(NC2CCSCC2)C1 (stereo unspecified) | -8.75% |
| CN(C)S(=O)(=O)c1cccc(NC(=O)Cc2ccon2)c1 | -4.37% |

| SMILES | cytotoxicity at 70.5 h |
| --- | --- |
| Cc1nc(C)n(Cc2cccc(NC3CCN(C)C3=O)c2)n1 (stereo unspecified) | -10.6% |
| CC(OCC(F)(F)F)C(=O)NCCN(C)C (stereo unspecified) | 20.8% |
| CCN(CC)CCNC(=O)C(C)OCC(F)(F)F (stereo unspecified) | -3.49% |
| CCSCc1cccc(NC2CCN(C)C2=O)c1 (stereo unspecified) | 19.7% |
| COCCn1cc(NC(=O)C(C)CCc2ccccc2F)ccc1=O (stereo unspecified) | -11.1% |
| O=C(CCCn1cncn1)N1CCCCC1c1nccs1 (stereo unspecified) | -4.13% |
| CC(C)CC(=O)NCCCn1cncn1 | 16.9% |
| CC(C)(C)CC(=O)NCCCn1cncn1 | -6.64% |
| CC(C)(C)C(=O)NCCCn1cncn1 | 6.35% |
| Cc1cn2c(n1)C(CNCC1=Cc3cc(Cl)ccc3OC1)CCC2 (stereo unspecified) | 3.13% |
| CC(C)c1nnc2n1CC(CNCc1nnc(C(C)(C)C)o1)CC2 (stereo unspecified) | 9.48% |
| Cc1cc(C)c(CNC(=O)NC2CCOCC2)c(=O)[nH]1 | -12.6% |
| COc1cccc(CN(C)CC2=Nc3ccccc3S(=O)(=O)N2)c1 | -8.56% |
| COc1cccc(CSCC2=Nc3ccccc3S(=O)(=O)N2)c1 | 3.53% |
| O=C(c1cc(F)cc2[nH]cnc12)N1CCCCC1Cn1cccn1 (stereo unspecified) | -7.7% |
| CN(C)S(=O)(=O)c1ccc2c(c1)N(Cc1nccn1C)CC2 | -3.03% |
| CC(C)n1nc2c(cc1=O)CN(c1ncnc3sccc13)CC2 | -10.1% |
| O=C(c1ccc2[nH]cnc2c1)N1CCCC1Cn1cccn1 (stereo unspecified) | -8.04% |
| Cc1cc(S(=O)(=O)NC(=O)CCc2cccnc2)c(C)s1 | 1.22% |
| Cn1cnnc1-c1ccnc(NCc2ccccc2)c1 | -6.07% |
| Fc1ccc(Br)c(NCc2nnsc2Cl)c1 | -2.39% |
| Cn1cnnc1-c1ccnc(NCc2ccc(Br)cc2)c1 | -4.99% |
| OC(CNC1CCOCC1)c1ccc(Cl)c(F)c1 (stereo unspecified) | 0.212% |
| Cc1nc(CNCC(C)c2nc3ccccc3o2)cs1 (stereo unspecified) | 0.552% |
| Cc1csc(CNCC(C)c2nc3ccccc3o2)n1 (stereo unspecified) | 15% |

| SMILES | cytotoxicity at 70.5 h |
| --- | --- |
| Cc1ncsc1CNCC(C)c1nc2ccccc2o1 (stereo unspecified) | -7.51% |
| CCN(CC)S(=O)(=O)N1CCCC1c1nnc2n1CCCCC2 (stereo unspecified) | -8.56% |
| CSCC(=O)N(C)Cc1ccccc1 | -6.59% |
| Cc1cn2c(n1)C(CNCc1cccc3c1OCO3)CCC2 (stereo unspecified) | 23.3% |
| Fc1ccc(NCc2nnsc2Cl)c(OC(F)F)c1 | 0.194% |
| CCN(C)C(=O)Nc1cc(F)c(OC)cc1F | 18.4% |
| CC(C)Cn1cc(NCc2cscn2)cn1 | 9.5% |
| c1coc(-c2nnc(CN(Cc3cccs3)CC3CCCO3)o2)c1 (stereo unspecified) | -6.66% |
| CN(CC(=O)NC(C)(C)C)Cc1nc(-c2ccccc2)c[nH]1 | 39% |
| O=C1NCCCCC1NCc1csc(-c2ccsc2)n1 (stereo unspecified) | 7.38% |
| CC(CNC(=O)c1nc(N2CCOCC2)ncc1Cl)c1ccccc1 (stereo unspecified) | 7.86% |
| COCCNS(=O)(=O)c1ccc(CNc2ncccc2C#N)cc1 | -12.6% |
| O=C(c1cccnc1O)N1CCC(COc2ccccc2)CC1 | -14.5% |
| COc1cc2c(cc1OC)S(=O)(=O)N(Cc1ccccc1)C2=O | -14.6% |
| COc1ccccc1N1CCN(Cc2nc(C)c(C)o2)CC1 | -8.1% |
| COc1cc(C(C)=O)ccc1SCC(=O)Nc1cc(C)n[nH]1 | -11.8% |
| COc1ccc2c(c1)CCCN(C(C)C(=O)NC(N)=O)C2 (stereo unspecified) | -8.05% |
| COc1cc(F)ccc1N1CCN(Cc2nc(C)c(C)o2)CC1 | -11.2% |
| CCN(C)c1ccc(CNC(=O)c2cc(C(N)=O)cs2)cc1F | -8.22% |
| COc1c(CNCc2nnc3n2CCCCC3)c(C)nn1C | -6.68% |
| COc1c(CNCc2nnc3n2CCCCC3)c(C(C)C)nn1C | -4.88% |
